Reference: ChEMBL document CHEMBL5036349, “Development of potent dual PDK1/AurA kinase inhibitors for cancer therapy: Lead-optimization, structural insights, and ADME-Tox profile” (Eur J Med Chem, 2021)

Tests used:
[1] = test system: NCI-H69; assay: Cytotoxicity against human NCI-H69 cells at 30 uM assessed as cell proliferation rate measured after 72 hrs by MTT assay relative to control; format: functional
[2] = test system: HCT-116; assay: Cytotoxicity against human HCT-116 cells at 30 uM assessed as cell proliferation rate measured after 72 hrs by MTT assay relative to control; format: functional
[3] = test system: PC-3; assay: Cytotoxicity against human PC-3 cells at 30 uM assessed as cell proliferation rate measured after 72 hrs by MTT assay relative to control; format: functional
[4] = test system: IGROV-1; assay: Cytotoxicity against human IGROV-1 cells at 30 uM assessed as cell proliferation rate measured after 72 hrs by MTT assay relative to control; format: functional
[5] = test system: MCF7; assay: Cytotoxicity against human MCF7 cells measured after 72 hrs by MTT assay; format: functional, cell-based; conditions: MCF7, 72 h
[6] = test system: CAKI-1; assay: Cytotoxicity against human CAKI-1 cells measured after 72 hrs by MTT assay; format: functional, cell-based; conditions: CAKI-1, 72 h
[7] = test system: 786-0; assay: Cytotoxicity against human 786-0 cells measured after 72 hrs by MTT assay; format: functional, cell-based; conditions: 786-0, 72 h
[8] = test system: IGROV-1; assay: Cytotoxicity against human IGROV-1 cells measured after 72 hrs by MTT assay; format: functional, cell-based; conditions: IGROV-1, 72 h
[9] = test system: PC-3; assay: Cytotoxicity against human PC-3 cells measured after 72 hrs by MTT assay; format: functional, cell-based; conditions: PC-3, 72 h
[10] = test system: HCT-116; assay: Cytotoxicity against human HCT-116 cells measured after 72 hrs by MTT assay; format: functional, cell-based; conditions: HCT-116, 72 h
[11] = test system: NCI-H69; assay: Cytotoxicity against human NCI-H69 cells measured after 72 hrs by MTT assay; format: functional, cell-based; conditions: NCI-H69, 72 h
[12] = test system: NCI-H82; assay: Cytotoxicity against human NCI-H82 cells measured after 72 hrs by MTT assay; format: functional, cell-based; conditions: NCI-H82, 72 h
[13] = test system: Rec1; assay: Cytotoxicity against human REC1 cells measured after 72 hrs by MTT assay; format: functional, cell-based; conditions: Rec1, 72 h
[14] = test system: TC-32; assay: Cytotoxicity against human TC-32 cells measured after 72 hrs by MTT assay; format: functional, cell-based; conditions: TC-32, 72 h
[15] = test system: SK-N-MC; assay: Cytotoxicity against human SK-N-MC cells measured after 72 hrs by MTT assay; format: functional, cell-based
[16] = Cytotoxicity against human 6647 cells measured after 72 hrs by MTT assay; format: functional, cell-based; conditions: Homo sapiens, 6647, 72 h
[17] = Cytotoxicity against human TC71 cells measured after 72 hrs by MTT assay; format: functional, cell-based; conditions: TC-71, 72 h
[18] = test system: A673; assay: Cytotoxicity against human A673 cells measured after 72 hrs by MTT assay; format: functional, cell-based; conditions: A673, 72 h
[19] = test system: MCF7; assay: Cytotoxicity against human MCF7 cells at 30 uM assessed as cell proliferation rate measured after 72 hrs by MTT assay relative to control; format: functional
[20] = test system: CAKI-1; assay: Cytotoxicity against human CAKI-1 cells at 30 uM assessed as cell proliferation rate measured after 72 hrs by MTT assay relative to control; format: functional
[21] = test system: 786-0; assay: Cytotoxicity against human 786-0 cells at 30 uM assessed as cell proliferation rate measured after 72 hrs by MTT assay relative to control; format: functional
[22] = test system: NCI-H82; assay: Cytotoxicity against human NCI-H82 cells at 30 uM assessed as cell proliferation rate measured after 72 hrs by MTT assay relative to control; format: functional
[23] = test system: Rec1; assay: Cytotoxicity against human REC1 cells at 30 uM assessed as cell proliferation rate measured after 72 hrs by MTT assay relative to control; format: functional
[24] = test system: TC-32; assay: Cytotoxicity against human TC-32 cells at 30 uM assessed as cell proliferation rate measured after 72 hrs by MTT assay relative to control; format: functional
[25] = test system: SK-N-MC; assay: Cytotoxicity against human SK-N-MC cells at 30 uM assessed as cell proliferation rate measured after 72 hrs by MTT assay relative to control; format: functional
[26] = Cytotoxicity against human 6647 cells at 30 uM assessed as cell proliferation rate measured after 72 hrs by MTT assay relative to control; format: functional
[27] = Cytotoxicity against human TC71 cells at 30 uM assessed as cell proliferation rate measured after 72 hrs by MTT assay relative to control; format: functional; conditions: TC-71
[28] = test system: A673; assay: Cytotoxicity against human A673 cells at 30 uM assessed as cell proliferation rate measured after 72 hrs by MTT assay relative to control; format: functional

Question: With `NCC(=O)Nc1ccc(-n2nc(C(F)(F)F)cc2-c2ccc3c(ccc4ccccc43)c2)cc1` [AR-12] as the molecule, how does the Emax at 30 µM [1] read?
Answer: Its Emax at 30 µM is 80%.

Question: And the Emax at 30 µM [2]?
Answer: Its Emax at 30 µM is 95%.

Question: What about the Emax at 30 µM [3] of the same molecule?
Answer: Its Emax at 30 µM is 80%.

Question: And the Emax at 30 µM [4]?
Answer: The Emax at 30 µM was 91%.

Question: And the IC50 [5]?
Answer: The IC50 was 2800 nM.

Question: What about the IC50 [6] of the same molecule?
Answer: The IC50 was 5000 nM.

Question: And the IC50 [7]?
Answer: The IC50 was 2900 nM.

Question: And the IC50 [8]?
Answer: The IC50 was 3700 nM.

Question: What about the IC50 [9] of the same molecule?
Answer: Its IC50 is 6500 nM.

Question: What about the IC50 [10] of the same molecule?
Answer: Its IC50 is 2700 nM.

Question: What about the IC50 [11] of the same molecule?
Answer: Its IC50 is 1800 nM.

Question: What about the IC50 [12] of the same molecule?
Answer: Its IC50 is 4000 nM.

Question: And the IC50 [13]?
Answer: Its IC50 is 3800 nM.

Question: And the IC50 [14]?
Answer: The IC50 was 2000 nM.

Question: And the IC50 [15]?
Answer: The IC50 was 6000 nM.

Question: What about the IC50 [16] of the same molecule?
Answer: The IC50 was 300 nM.

Question: What about the IC50 [17] of the same molecule?
Answer: Its IC50 is 800 nM.

Question: What about the IC50 [18] of the same molecule?
Answer: Its IC50 is 2100 nM.

Question: What about the Emax at 30 µM [19] of the same molecule?
Answer: Its Emax at 30 µM is 89%.

Question: What about the Emax at 30 µM [20] of the same molecule?
Answer: The Emax at 30 µM was 95%.

Question: What about the Emax at 30 µM [21] of the same molecule?
Answer: Its Emax at 30 µM is 80%.

Question: And the Emax at 30 µM [22]?
Answer: Its Emax at 30 µM is 90%.

Question: What about the Emax at 30 µM [23] of the same molecule?
Answer: The Emax at 30 µM was 90%.

Question: What about the Emax at 30 µM [24] of the same molecule?
Answer: The Emax at 30 µM was 75%.

Question: And the Emax at 30 µM [25]?
Answer: Its Emax at 30 µM is 81%.

Question: What about the Emax at 30 µM [26] of the same molecule?
Answer: The Emax at 30 µM was 89%.

Question: What about the Emax at 30 µM [27] of the same molecule?
Answer: Its Emax at 30 µM is 95%.

Question: And the Emax at 30 µM [28]?
Answer: The Emax at 30 µM was 95%.
